{"source": "BigSolDB 2.1"}
{"compound": "OC[C@H]1O[C@@H](Oc2ccc(O)cc2)[C@H](O)[C@@H](O)[C@@H]1O", "values": [{"measurement": "solubility (mole fraction)", "setting": "in 1,4-dioxane, 283.15 K", "result": 0.0046}, {"measurement": "solubility (mole fraction)", "setting": "in 1,4-dioxane, 293.15 K", "result": 0.00491}, {"measurement": "solubility (mole fraction)", "setting": "in 1,4-dioxane, 303.15 K", "result": 0.00579}, {"measurement": "solubility (mole fraction)", "setting": "in 1,4-dioxane, 313.15 K", "result": 0.00696}, {"measurement": "solubility (mole fraction)", "setting": "in 1,4-dioxane, 323.15 K", "result": 0.00816}, {"measurement": "solubility (mole fraction)", "setting": "in acetone, 283.15 K", "result": 0.000601}, {"measurement": "solubility (mole fraction)", "setting": "in acetone, 293.15 K", "result": 0.000781}, {"measurement": "solubility (mole fraction)", "setting": "in acetone, 303.15 K", "result": 0.000962}, {"measurement": "solubility (mole fraction)", "setting": "in acetone, 313.15 K", "result": 0.00126}, {"measurement": "solubility (mole fraction)", "setting": "in acetone, 323.15 K", "result": 0.00161}, {"measurement": "solubility (mole fraction)", "setting": "in acetonitrile, 283.15 K", "result": "3.5e-05"}, {"measurement": "solubility (mole fraction)", "setting": "in acetonitrile, 293.15 K", "result": "7.2e-05"}, {"measurement": "solubility (mole fraction)", "setting": "in acetonitrile, 303.15 K", "result": 0.000145}, {"measurement": "solubility (mole fraction)", "setting": "in acetonitrile, 313.15 K", "result": 0.000239}, {"measurement": "solubility (mole fraction)", "setting": "in acetonitrile, 323.15 K", "result": 0.000365}, {"measurement": "solubility (mole fraction)", "setting": "in dichloromethane, 283.15 K", "result": "4e-06"}, {"measurement": "solubility (mole fraction)", "setting": "in dichloromethane, 288.15 K", "result": "7e-06"}, {"measurement": "solubility (mole fraction)", "setting": "in dichloromethane, 293.15 K", "result": "1e-05"}, {"measurement": "solubility (mole fraction)", "setting": "in dichloromethane, 298.15 K", "result": "1.3e-05"}, {"measurement": "solubility (mole fraction)", "setting": "in dichloromethane, 303.15 K", "result": "1.6e-05"}, {"measurement": "solubility (mole fraction)", "setting": "in ethanol, 283.15 K", "result": 0.00228}, {"measurement": "solubility (mole fraction)", "setting": "in ethanol, 293.15 K", "result": 0.00274}, {"measurement": "solubility (mole fraction)", "setting": "in ethanol, 303.15 K", "result": 0.00351}, {"measurement": "solubility (mole fraction)", "setting": "in ethanol, 313.15 K", "result": 0.0044}, {"measurement": "solubility (mole fraction)", "setting": "in ethanol, 323.15 K", "result": 0.00582}, {"measurement": "solubility (mole fraction)", "setting": "in ethyl acetate, 283.15 K", "result": 0.000155}, {"measurement": "solubility (mole fraction)", "setting": "in ethyl acetate, 293.15 K", "result": 0.00016}, {"measurement": "solubility (mole fraction)", "setting": "in ethyl acetate, 303.15 K", "result": 0.000166}, {"measurement": "solubility (mole fraction)", "setting": "in ethyl acetate, 313.15 K", "result": 0.000173}, {"measurement": "solubility (mole fraction)", "setting": "in ethyl acetate, 323.15 K", "result": 0.00018}, {"measurement": "solubility (mole fraction)", "setting": "in isopropanol, 283.15 K", "result": 0.000532}, {"measurement": "solubility (mole fraction)", "setting": "in isopropanol, 293.15 K", "result": 0.000795}, {"measurement": "solubility (mole fraction)", "setting": "in isopropanol, 303.15 K", "result": 0.00128}, {"measurement": "solubility (mole fraction)", "setting": "in isopropanol, 313.15 K", "result": 0.00172}, {"measurement": "solubility (mole fraction)", "setting": "in isopropanol, 323.15 K", "result": 0.00259}, {"measurement": "solubility (mole fraction)", "setting": "in methanol, 283.15 K", "result": 0.0112}, {"measurement": "solubility (mole fraction)", "setting": "in methanol, 293.15 K", "result": 0.0129}, {"measurement": "solubility (mole fraction)", "setting": "in methanol, 303.15 K", "result": 0.0151}, {"measurement": "solubility (mole fraction)", "setting": "in methanol, 313.15 K", "result": 0.0181}, {"measurement": "solubility (mole fraction)", "setting": "in methanol, 323.15 K", "result": 0.0226}, {"measurement": "solubility (mole fraction)", "setting": "in n-pentanol, 283.15 K", "result": 0.000338}, {"measurement": "solubility (mole fraction)", "setting": "in n-pentanol, 293.15 K", "result": 0.000471}, {"measurement": "solubility (mole fraction)", "setting": "in n-pentanol, 303.15 K", "result": 0.000689}, {"measurement": "solubility (mole fraction)", "setting": "in n-pentanol, 313.15 K", "result": 0.000851}, {"measurement": "solubility (mole fraction)", "setting": "in n-pentanol, 323.15 K", "result": 0.00119}, {"measurement": "solubility (mole fraction)", "setting": "in n-propanol, 283.15 K", "result": 0.000787}, {"measurement": "solubility (mole fraction)", "setting": "in n-propanol, 293.15 K", "result": 0.00102}, {"measurement": "solubility (mole fraction)", "setting": "in n-propanol, 303.15 K", "result": 0.00142}, {"measurement": "solubility (mole fraction)", "setting": "in n-propanol, 313.15 K", "result": 0.00185}, {"measurement": "solubility (mole fraction)", "setting": "in n-propanol, 323.15 K", "result": 0.00248}, {"measurement": "solubility (mole fraction)", "setting": "in sec-butanol, 283.15 K", "result": 0.000355}, {"measurement": "solubility (mole fraction)", "setting": "in sec-butanol, 293.15 K", "result": 0.000691}, {"measurement": "solubility (mole fraction)", "setting": "in sec-butanol, 303.15 K", "result": 0.000969}, {"measurement": "solubility (mole fraction)", "setting": "in sec-butanol, 313.15 K", "result": 0.00167}, {"measurement": "solubility (mole fraction)", "setting": "in sec-butanol, 323.15 K", "result": 0.00226}, {"measurement": "solubility (mole fraction)", "setting": "in water, 283.15 K", "result": 0.00524}, {"measurement": "solubility (mole fraction)", "setting": "in water, 293.15 K", "result": 0.00796}, {"measurement": "solubility (mole fraction)", "setting": "in water, 303.15 K", "result": 0.0108}, {"measurement": "solubility (mole fraction)", "setting": "in water, 313.15 K", "result": 0.0173}, {"measurement": "solubility (mole fraction)", "setting": "in water, 323.15 K", "result": 0.0283}]}
